# Assay results taken from article PMC10766610, “DCAF1-based PROTACs with activity against clinically validated targets overcoming intrinsic- and acquired-degrader resistance” (Nature Communications, 2024).
# Legend:
# BRD9 = target: T1, BRD9 (Homo sapiens, UniProt Q9H8M2); experiment: Immunoblot of BRD9 in HEK293 BRD9-HiBiT/FF/CAS9 cells; type: cell-based; parameters: host or cells: HEK293/BRD9-HiBiT knock-in; clone and BRD9-HiBiT/CAS9/FF clone
# T1 sequence (Q9H8M2 1-597): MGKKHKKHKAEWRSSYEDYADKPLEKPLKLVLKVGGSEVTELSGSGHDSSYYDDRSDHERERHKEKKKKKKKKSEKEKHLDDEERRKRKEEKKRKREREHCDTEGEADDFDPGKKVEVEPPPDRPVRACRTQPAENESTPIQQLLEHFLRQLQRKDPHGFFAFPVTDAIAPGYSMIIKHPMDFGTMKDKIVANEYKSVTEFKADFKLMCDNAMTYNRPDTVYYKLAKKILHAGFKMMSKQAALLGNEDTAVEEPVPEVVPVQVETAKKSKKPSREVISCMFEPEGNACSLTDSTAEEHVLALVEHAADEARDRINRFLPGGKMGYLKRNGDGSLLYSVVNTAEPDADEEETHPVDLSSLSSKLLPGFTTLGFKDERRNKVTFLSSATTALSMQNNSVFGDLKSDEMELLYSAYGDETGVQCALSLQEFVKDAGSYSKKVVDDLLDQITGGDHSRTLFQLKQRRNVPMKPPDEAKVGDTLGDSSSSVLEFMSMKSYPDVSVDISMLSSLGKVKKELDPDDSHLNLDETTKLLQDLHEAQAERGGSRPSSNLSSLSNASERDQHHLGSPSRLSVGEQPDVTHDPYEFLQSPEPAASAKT
# Procedure: (§1) Whole cell lysates for immunoblotting were prepared by pelleting cells at 4 °C (300 g) for 3 min. Cell pellets were then washed 1x with PBS and resuspended in RIPA lysis buffer (VWR, cat # 97063-270) supplemented with protease (Thermo Scientific, cat # A32955) and phosphatase (Thermo Scientific, cat # A32957) inhibitor tablets. Lysates were clarified at 16,000 × g for 15 min at 4 °C prior to quantification by Lowry assay (Bio-Rad cat # 5000113 and cat # 5000114). Whole-cell lysates were loaded into 4–20% Criterion TGX Precast 18 well gels (Bio-Rad, cat # 5671094) and separated by electrophoreses at 120 V for 1 h. The gels were transferred to a nitrocellulose membrane using the Trans-Blot Turbo (Bio-Rad) for 7 min and then blocked for 1 h at room temperature in Odyssey blocking buffer (LICOR Biosciences, cat # 927-50000). Membranes were probed with the appropriate primary antibodies (diluted 1:1000) overnight at 4 °C in 20% Odyssey blocking buffer in 1x TBST. Membranes were washed three times with 1x TBST (5 min per wash), and then incubated with IRDye goat anti-mouse (LICOR, cat # 926-32210) or goat anti-rabbit (LICOR, cat # 926-32211) secondary antibody diluted 1:10,000 in 20% Odyssey blocking buffer for 1 h at room temperature. After three 5-min washes with 1x TBST, the immunoblots were visualized using the ODYSSEY Infrared Imaging System (LICOR). Alternatively, SDS-PAGE resolved proteins were transferred to a PVDF membrane using a wet blotting system (Invitrogen). Membranes were blocked in 5% Milk-PBS-Tween 20 for 1 h and incubated with primary antibody over night at 4 °C. Secondary antibodies (secondary antibody: anti-rabbit, goat pAb to Rb-IgG (Abcam, #7090); secondary antibody: anti-mouse, sheep IgG HRP-linked (GE healthcare, #NA931V)) were incubated for 1 h at room temperature (RT) before blots were developed on film using the detection kit SuperSignal West Femto Maximum Sensitivity Substrate (Thermo Fisher, #34096).
# [1] = target: T2, DCAF1(WDR) with additional 10 µM BTK (Homo sapiens, UniProt Q06187+Q9Y4B6, E1398S); experiment: DCAF1 TR-FRET, cooperative format with 10 µM BTK; type: binding; settings: cooperative format (+ BTK in Fig. 6b); ± SD (n); read-out: IC50 Alpha DCAF1 TR-FRET
# T2 construct: 2 nM human DCAF1(1073-1399)_E1398S-Avi-His; human BTK (G389-S659); His6 (C); His (PreScission site) (N); made in house; host or cells: Sf9 insect cells (both chains)
# T2 sequence (Q9Y4B6 1073-1399 E1398S): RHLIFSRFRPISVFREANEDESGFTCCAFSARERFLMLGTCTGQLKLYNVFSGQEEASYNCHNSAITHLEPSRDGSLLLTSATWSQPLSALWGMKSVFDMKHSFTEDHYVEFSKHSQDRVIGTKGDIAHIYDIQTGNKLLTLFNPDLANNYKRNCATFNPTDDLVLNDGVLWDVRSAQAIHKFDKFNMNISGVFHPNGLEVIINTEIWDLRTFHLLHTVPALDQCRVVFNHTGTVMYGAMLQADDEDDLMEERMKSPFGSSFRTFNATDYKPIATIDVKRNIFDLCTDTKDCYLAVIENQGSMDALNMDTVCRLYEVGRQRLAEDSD
# T2 sequence (Q06187 389-659): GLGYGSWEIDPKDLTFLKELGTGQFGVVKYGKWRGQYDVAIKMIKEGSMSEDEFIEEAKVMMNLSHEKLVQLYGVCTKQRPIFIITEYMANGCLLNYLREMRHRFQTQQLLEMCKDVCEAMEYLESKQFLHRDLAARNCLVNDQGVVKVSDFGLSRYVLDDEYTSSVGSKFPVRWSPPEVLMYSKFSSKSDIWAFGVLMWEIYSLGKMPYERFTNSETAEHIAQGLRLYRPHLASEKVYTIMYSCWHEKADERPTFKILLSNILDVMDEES
# Procedure: Competition assay conditions consist of 20 µL total volume in white 384-well plates (Greiner), in 30 mM phosphate buffer pH 7.4 containing 140 mM NaCl, 0.01% Tween20, 1 mM TCEP and 1% final DMSO. Tested compounds at 14 different concentrations were pre-incubated at 22 °C for 30 min with a large excess of 10 µM human BTK (G389-S659) or 10 µM human BRD9-BD(130-250) in the cooperative assay or with buffer in standard binary assay. […] Samples were then incubated at 22 °C for 30 min before reading using a Tecan infinite M-1000 or PheraStar FSX (excitation 340 nm, emission 490 and 520 nm). DCAF1 protein was omitted in the negative control. IC50 fitting was carried out using an in-house developed software (Novartis Helios software application, unpublished, a publicly available alternative would be e.g., Graphpad Prism) using the methods described by Fomenko et al.[93] (regression algorithms for nonlinear dose-response curve fitting). Following normalization of activity values for the wells to % inhibition (% inhibition = [(high control-sample)/(high control-low control)] × 100). Data analysis could also be carried out using GraphPad Prism without prior normalization. The reported IC50 values are the average of at least two independent experiments.
# BTK kinase domain = target: T3, BTK kinase domain (Homo sapiens, UniProt Q06187); experiment: BTK EPK assay (enzymatic inhibition); type: biochemical
# T3 construct: BTK kinase domain was mixed in assay buffer
# T3 sequence (Q06187 402-655 limits assumed): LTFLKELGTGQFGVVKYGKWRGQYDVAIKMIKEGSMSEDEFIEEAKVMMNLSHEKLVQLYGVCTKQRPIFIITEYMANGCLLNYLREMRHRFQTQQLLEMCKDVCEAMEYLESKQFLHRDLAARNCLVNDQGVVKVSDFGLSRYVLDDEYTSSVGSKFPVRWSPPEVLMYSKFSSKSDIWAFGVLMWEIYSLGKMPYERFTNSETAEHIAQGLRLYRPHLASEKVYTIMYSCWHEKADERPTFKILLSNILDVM
# Procedure: BTK kinase domain was mixed in assay buffer containing 50 mM HEPES pH 7.5, 0.02% Tween20, 0.02 % bovine serum albumin, 1 mM DTT, 0.01 mM Na3VO4, 10 mM b-Glycerolphosphate, 18 mM MgCl2, 1 mM MnCl2 to a 2× concentration of 8 nM. This solution was added to pre-dispensed compound dilution series in black, 384 well -low dead volume plates (Greiner) and the reaction was initiated by the addition of ATP and a BTK consensus peptide (Sequence: 5-Fluo-Ahx-[…]-Nle-P-Nle-NAND-NH2) to a final assay concentrations of 0.047 mM and 0.002 mM, respectively in assay buffer. The reaction was stopped after 60 min at 32 °C by addition of the same volume of spot solution containing 100 mM HEPES pH 7.5, 5% DMSO, 10 mM EDTA, 0.015% Brij 35. Stopped reactions were analyzed on a Caliper LC3000, which was treated with the commercially available coating reagents CR−3 and CR-8 as instructed by the manufacturer. The relative intensities of phosphorylated peptide were calculated. Data was normalized to control wells containing 100 mM EDTA solution instead of the 2× kinase solutions (0%) and DMSO-only control wells (100%). Normalized data was fitted using a sigmoidal fit.
# LIMK2 = target: T4, LIMK2 (Homo sapiens, UniProt P53671); experiment: Immunoblot of LIMK2 in HEK293T cells; type: cell-based; settings: 6 h
# T4 construct: host or cells: HEK293T
# T4 sequence (P53671 whole entry): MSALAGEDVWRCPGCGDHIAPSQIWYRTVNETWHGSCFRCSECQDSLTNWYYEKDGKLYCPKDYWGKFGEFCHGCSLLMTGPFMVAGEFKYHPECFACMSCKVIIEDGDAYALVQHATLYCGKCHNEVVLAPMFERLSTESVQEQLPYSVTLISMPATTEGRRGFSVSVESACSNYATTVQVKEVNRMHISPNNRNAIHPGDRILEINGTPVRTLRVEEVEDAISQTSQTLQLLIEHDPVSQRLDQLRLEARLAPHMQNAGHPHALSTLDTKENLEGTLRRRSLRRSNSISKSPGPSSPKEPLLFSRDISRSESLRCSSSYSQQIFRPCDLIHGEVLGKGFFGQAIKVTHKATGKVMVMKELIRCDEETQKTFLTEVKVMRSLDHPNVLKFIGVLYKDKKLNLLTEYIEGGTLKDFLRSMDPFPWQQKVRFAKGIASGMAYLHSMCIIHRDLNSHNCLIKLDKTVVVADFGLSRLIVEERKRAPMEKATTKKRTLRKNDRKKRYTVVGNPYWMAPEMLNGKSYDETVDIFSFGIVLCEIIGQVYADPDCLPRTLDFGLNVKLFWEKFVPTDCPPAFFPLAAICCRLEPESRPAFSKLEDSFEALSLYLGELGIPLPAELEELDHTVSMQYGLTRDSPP
# Procedure: as §1, with “Alternatively, SDS-PAGE resolved proteins were transferred to a PVDF membrane using a wet blotting system (Invitrogen). Membranes were blocked in 5% Milk-PBS-Tween 20 for 1 h and incubated with primary antibody over night at 4 °C. Secondary antibodies (secondary antibody: anti-rabbit, goat pAb to Rb-IgG (Abcam, #7090); secondary antibody: anti-mouse, sheep IgG HRP-linked (GE healthcare, #NA931V)) were incubated for 1 h at room temperature (RT) before blots were developed on film using the detection kit SuperSignal West Femto Maximum Sensitivity Substrate (Thermo Fisher, #34096).” left out
smiles,measurement,setting,value
COc1cc(-c2cn(C)c(=O)c3cnccc23)c(OC)cc1CN1CCC(OCCCCCC(=O)N2CCN(c3ccc4c(NCCN)nc(C5(c6ccc(Cl)cc6)CCCCC5)nc4c3)CC2)CC1 [DBr-1],BRD9 protein loss,"BRD9; 1000 nM, 6 h, HEK293 cells",about 90%
same,BRD9 degradation,"BRD9; 1000 nM, after 30 min",90%
same,DC50,"BRD9; 6 h, HEK293 cells, immunoblot, read-out: DC50 BRD9 estimated from dose-response curve",~0.5 µM
Cc1c(NC(=O)c2ccc(C(C)(C)O)cc2F)cc(F)cc1-c1ncnc2[nH]c(-c3ccc(CNCCOCCOCCOCCOCCOCCOCCOCCOCCOCCOCCOCCOCCC(=O)N4CCN(c5ccc6c(NCCN)nc(C7(c8ccc(Cl)cc8)CCCCC7)nc6c5)CC4)cc3)cc12 [DBt-5],IC50,[1],0.282 ± 0.084 µM
same,IC50,BTK kinase domain,0.062 µM
Cc1c(NC(=O)N2CC(O)(CC(C)(C)C)C2)cc(F)cc1-c1ncnc2[nH]c(-c3cnn(CC(=O)N4CCC5(CC4)CN(CCNC(=O)CCCC(=O)N4CCN(c6ccc7c(NCCN)nc(C8(c9ccc(Cl)cc9)CCCCC8)nc7c6)CC4)CCO5)c3)cc12 [DBt-10],IC50,[1],0.082 ± 0.039 µM
same,IC50,BTK kinase domain,0.044 µM
Cc1nc(Nc2ncc(C(=O)Nc3c(C)cccc3Cl)s2)cc(N2CCC(OC3CCN(CCCCCCCC(=O)N4CCN(c5ccc6c(NCCN)nc(C7(c8ccc(Cl)cc8)CCCCC7)nc6c5)CC4)CC3)CC2)n1 [DDa-1],LIMK2 protein levels,LIMK2,significant reduction in protein levels
CC(=O)N1CCN(c2ccc3c(NCCN)nc(C4(c5ccc(Cl)cc5)CCCCC4)nc3c2)CC1 [compound 13],BRD9 protein reduction by individual binders,"BRD9; 1000 nM, 6 h",No BRD9 protein reduction
